Activity calls are given as the source filed them. The rule behind the calls is not given here.

Data on seven compounds can be found in ChEMBL document CHEMBL3797112, “Flavonoid profile and antileukemic activity of Coreopsis lanceolata flowers” (Bioorg Med Chem Lett, 2016).

Series [1] can be described thus: Retention time of the compound by UPLC-ESI-MS method. The series is classed as physicochemical.
The subject of series [2] is HL-60. The experiment in a line: (§1) Antiproliferative activity against human HL60 cells assessed as cell survival at 25 uM incubated for 48 hrs by CCK8 assay. The series is classed as functional.
A short description of series [3]: as §1. The series is classed as functional. The note with it: HL-60, 48 h, read-out: Survival.
Series [4] deals with HL-60. The experiment in a line: Induction of apoptosis in human HL60 cells at 25 uM incubated for 48 hrs by Giemsa staining assay. The series is classed as functional, cell-based.
The test system of series [5] is HL-60. Briefly: Induction of apoptosis in human HL60 cells assessed as induction of morphological changes at 25 uM incubated for 48 hrs by Hoechst-33342 staining assay. The series is classed as functional, cell-based.

In turn, `COc1c(O)ccc2c1O[C@H](c1ccc(O)c(O)c1)CC2=O` showed a Retention_time in series [1] of 18.52 min. Moreover, in series [2], the result was inactive.
Taken in the same sequence, the figures for `COc1c(O[C@@H]2O[C@H](CO)[C@@H](O)[C@H](O)[C@H]2O)ccc2c1O/C(=C\c1ccc(O)c(O)c1)C2=O` were 16.07 min and “inactive”.
Turning to `COc1c(O)ccc(C(=O)/C=C/c2ccc(O)c(O)c2)c1O`, the Retention_time in series [1] is 30.97 min. Further, the result in series [2] was inactive.
Taken in the same sequence, the figures for `COc1c(O)ccc2c1O/C(=C\c1ccc(O)c(O)c1)C2=O` were 25.04 min and “inactive”.
In turn, `O=C(/C=C/c1ccc(O)c(O)c1)c1ccc(O)c(O)c1O` showed a Retention_time in series [1] of 20.14 min. For the same compound, the outcome in series [2] was inactive.
With `CC(=O)O[C@H]1C(=O)[C@@]2(C)[C@H]([C@H](OC(=O)c3ccccc3)[C@]3(O)C[C@H](OC(=O)[C@H](O)[C@@H](NC(=O)c4ccccc4)c4ccccc4)C(C)=C1C3(C)C)[C@]1(OC(C)=O)CO[C@@H]1C[C@@H]2O` [PACLITAXEL], the viability at 25 µM in series [3] worked out at 18.9%.
Take `COc1ccc(/C=C/C(=O)c2ccc(O)c(OC)c2O)cc1O`: the result in series [4] and in series [5] was Active. This compound gave a Retention_time in series [1] of 41.24 min. Moreover, the viability at 25 µM in series [3] came to 23.8%.
